According to ChEMBL document CHEMBL5352391, “New structural classes of antimalarials” (Eur J Med Chem, 2022):
In brackets after ≈: the same amount, converted by molar mass.

Experiments:
Plasmodium falciparum [1] = experiment: Antiplasmodial activity against chloroquine resistant Plasmodium falciparum RKL9 infected in human erythrocyte assessed as inhibition of parasite growth incubated for 24 hrs by three fold serial dilution assay; type: functional
Plasmodium falciparum [2] = experiment: Antimalarial activity against Plasmodium falciparum 3D7 assessed as inhibition of parasite growth by measuring minimum inhibitory concentration by microassay; type: functional
Plasmodium falciparum [3] = experiment: Antiplasmodial activity against erythrocytic stage of Plasmodium falciparum 3D7 assessed as reduction of parasite growth incubated for 100 hrs by SYBR Green dye based fluorescence assay; type: functional, organism-based; conditions: 3D7, 100 h
Plasmodium falciparum [4] = experiment: Antiplasmodial activity against erythrocytic stage of Plasmodium falciparum K1 assessed as reduction of parasite growth incubated for 48 hrs by [3H]-hypoxanthine incorporation based beta-plate liquid scintillation counting method; type: functional, organism-based
Plasmodium falciparum [5] = experiment: Antiplasmodial activity against erythrocytic stage of Plasmodium falciparum NF54 assessed as reduction of parasite growth incubated for 48 hrs by [3H]-hypoxanthine incorporation based beta-plate liquid scintillation counting method; type: functional, organism-based
[6] = Cytotoxicity against human HepG2 cells assessed as reduction in cell viability incubated for 72 hrs by MTT assay; type: toxicity, cell-based
[7] = Selectivity index, ratio of CC50 for cytotoxicity against human HepG2 cells by MTT assay to EC50 for antiplasmodial activity against erythrocytic stage of Plasmodium falciparum 3D7 by SYBR Green dye based fluorescence assay; type: toxicity, cell-based; conditions: read-out: Ratio CC50/EC50
Plasmodium falciparum [8] = experiment: Antimalarial activity against chloroquine resistant Plasmodium falciparum assessed as inhibition of parasite growth; type: functional, organism-based
Plasmodium falciparum [9] = experiment: Antiplasmodial activity against chloroquine sensitive Plasmodium falciparum GC03 infected in human erythrocyte assessed as inhibition of parasite growth incubated for 48 hrs by SYBR Green dye based fluorescence assay; type: functional, organism-based
Plasmodium falciparum [10] = experiment: Antiplasmodial activity against chloroquine sensitive Plasmodium falciparum 3D7 assessed as inhibition of parasite growth incubated for 48 hrs by Malstat reagent based spectrophotometric; type: functional, organism-based; conditions: 3D7, 48 h
Plasmodium falciparum [11] = experiment: Antiplasmodial activity against chloroquine resistant Plasmodium falciparum RKL-2 assessed as inhibition of parasite growth incubated for 36 to 40 hrs by Giemsa staining based microscopic analysis; type: functional, organism-based
Plasmodium falciparum [12] = experiment: Antimalarial activity against Plasmodium falciparum 3D7 assessed as reduction of parasite growth at 25 uM incubated for 96 hrs by SYBR green I dye based fluorescence assay relative to control; type: functional; set-up: scale not given: the % may be the effect or the level left
Plasmodium falciparum [13] = experiment: Antimalarial activity against Plasmodium falciparum 3D7 assessed as reduction of parasite growth incubated for 96 hrs by SYBR green I dye based fluorescence assay; type: functional, organism-based; conditions: 3D7, 96 h
Plasmodium falciparum [14] = experiment: Antiplasmodial activity against chloroquine resistant Plasmodium falciparum K14 assessed as inhibition of parasite growth incubated for 48 hrs by [3H]-hypoxanthine incorporation based microbeta scintillation counting method; type: functional, organism-based
[15] = Retention time of the compound by HPLC-MS analysis; type: physicochemical
Plasmodium falciparum [16] = experiment: Antiplasmodial activity against Plasmodium falciparum K1 infected in human erythrocyte assessed as inhibition of parasite growth incubated for 72 hrs by [3H]-hypoxanthine incorporation based liquid scintillation counting method; type: functional, organism-based
[17] = Selectivity index, ratio of CC50 for cytotoxicity against human HepG2 cells by MTT assay to EC50 for antiplasmodial activity against erythrocytic stage of Plasmodium falciparum K1 by [3H]-hypoxanthine incorporation based liquid scintillation counting method; type: toxicity, cell-based; conditions: read-out: Ratio CC50/EC50
[18] = Selectivity index, ratio of CC50 for cytotoxicity against human HepG2 cells by MTT assay to EC50 for antiplasmodial activity against erythrocytic stage of Plasmodium falciparum NF54 by [3H]-hypoxanthine incorporation based liquid scintillation counting method; type: toxicity, cell-based; conditions: read-out: Ratio CC50/EC50
Plasmodium falciparum [19] = experiment: Antiplasmodial activity against chloroquine resistant Plasmodium falciparum K14 assessed as inhibition of parasite growth incubated for 42 hrs by [3H]-hypoxanthine incorporation based microbeta scintillation counting method; type: functional, organism-based
Plasmodium berghei = experiment: Antimalarial activity against Plasmodium berghei ANKA infected in Swiss albino mouse assessed as reduction in parasitemia at 50 micromol/kg,po administrated for 4 days by Giemsa staining based microscopic analysis; type: functional; set-up: scale not given: the % may be the effect or the level left; conditions: dose 50 µmol/kg, time 4 day
Falcipain 2 = molecular target: T1, Falcipain 2 (Plasmodium falciparum, UniProt Q9N6S8); experiment: Inhibition of Plasmodium falciparum recombinant His-tagged falcipain-2 expressed in Escherichia coli assessed as inhibition constant using Cbz-Phe-Arg-AMC as substrate by fluorescence spectrophotometer assay
T1 sequence (Q9N6S8 whole entry): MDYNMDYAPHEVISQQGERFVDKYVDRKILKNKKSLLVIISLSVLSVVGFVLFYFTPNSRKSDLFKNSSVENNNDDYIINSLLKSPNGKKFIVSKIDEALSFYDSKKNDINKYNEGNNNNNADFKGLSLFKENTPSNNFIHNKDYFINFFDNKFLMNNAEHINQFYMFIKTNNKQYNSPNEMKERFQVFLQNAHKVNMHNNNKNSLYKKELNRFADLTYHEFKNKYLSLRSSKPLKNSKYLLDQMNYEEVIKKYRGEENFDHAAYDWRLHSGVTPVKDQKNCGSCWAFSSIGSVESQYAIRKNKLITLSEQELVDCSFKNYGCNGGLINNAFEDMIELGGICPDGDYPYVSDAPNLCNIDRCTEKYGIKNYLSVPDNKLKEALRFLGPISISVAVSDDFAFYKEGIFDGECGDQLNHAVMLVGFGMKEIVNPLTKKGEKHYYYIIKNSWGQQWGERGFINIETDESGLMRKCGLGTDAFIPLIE

Plasmodium falciparum [20] = experiment: Antiplasmodial activity against Plasmodium falciparum 3D7 assessed as inhibition of parasite growth incubated for 72 hrs by LDH assay based spectrofluorometric analysis; type: functional, organism-based; conditions: 3D7, 72 h

O=C(N/N=C/C=C/c1ccccc1)c1ccncc1
inhibition (INH) (Plasmodium falciparum [1]): 80%

Cc1ccc(C2=C/C(=C/c3cc4cc(C)ccc4nc3Cl)C(=O)O2)cc1
MIC (Plasmodium falciparum [2]): 50 µg/mL (≈ 138 µM)

CC1(C)C2CC=C(CC(=O)Nc3cccc4cccnc34)[C@@H]1C2
EC50 (Plasmodium falciparum [3]): 2.19 µM | EC50 (Plasmodium falciparum [4]): > 50 µM | EC50 (Plasmodium falciparum [5]): > 50 µM | CC50 at 72 h [6]: > 100 µM | selectivity ratio [7]: > 62.3

C=C[C@H]1CN2CC[C@H]1C[C@H]2[C@H](O)c1ccnc2ccc(OC)cc12 [QUININE]
IC50 (Plasmodium falciparum [8]): 0.026 µg/mL (≈ 0.0801 µM)

N=C(N)c1ccc(-n2cc(-c3cccc(C(=N)N)c3)nn2)cc1
IC50 (Plasmodium falciparum [9]): 0.44 µM

COc1ccc(-c2[nH]c3c(NC(C)=O)cc(/C=C/c4ccc(F)cc4)cc3c2C(=O)C(F)(F)F)cc1
IC50 (Plasmodium falciparum [10]): 3.39 µM

CCN(Cc1cc(C2(C)OOC(c3ccco3)OO2)ccc1O)c1ccccc1 (centres undefined)
IC50 (Plasmodium falciparum [11]): 5.3 µg/mL (≈ 13.3 µM)

CCN(Cc1cc(C2(C)OOC(c3cccs3)OO2)ccc1O)c1ccccc1 (centres undefined)
IC50 (Plasmodium falciparum [11]): 5.3 µg/mL (≈ 12.8 µM)

COC(=O)[C@H](Cc1ccc(O)c(-c2ccc(F)cc2)c1)NC(=O)C(=O)c1c[nH]c2ccccc12
Activity (Plasmodium falciparum [12]): 60% | EC50 (Plasmodium falciparum [13]): 1.3 µM

COC(=O)[C@H](Cc1ccc(O)c(-c2ccsc2)c1)NC(=O)C(=O)c1c[nH]c2ccccc12
Activity (Plasmodium falciparum [12]): 60%

COc1ccc(N2C(=O)[C@@H](Oc3ccc(Cl)cc3Cl)[C@H]2c2ccc(NC(=O)N3CCOCC3)cc2)cc1
IC50 (Plasmodium falciparum [14]): 21 µM

COC(=O)[C@H](Cc1ccc(O)c(C(=O)OCc2ccc(Nc3ccccc3)cc2)c1)NC(=O)C(=O)c1c[nH]c2ccccc12
Activity (Plasmodium falciparum [12]): 60%

C[C@H](C[C@H](O)[C@@H](O)C(C)(C)O)C1=C2C[C@H](O)[C@H]3[C@@]4(C)CCC(=O)C(C)(C)[C@@H]4CC[C@]3(C)[C@@]2(C)CC1 [ALISOL A]
Retention_time [15]: 23 min | IC50 (Plasmodium falciparum [16]): 13.8 µM

COc1ccc2nc(Cl)c(/C=C3/C=C(c4ccc(C)cc4C)OC3=O)cc2c1
MIC (Plasmodium falciparum [2]): 10 µg/mL (≈ 25.5 µM)

CC1(C)C2CC=C(CC(=O)Oc3ccnc4cc(Cl)ccc34)[C@@H]1C2
EC50 (Plasmodium falciparum [3]): > 50 µM | EC50 (Plasmodium falciparum [4]): 0.164 µM | EC50 (Plasmodium falciparum [5]): 23.3 µM | selectivity ratio [17]: > 976 | selectivity ratio [18]: 0.7 | CC50 at 72 h [6]: > 160 µM

Oc1ccc(/N=C/c2cccc(CN3CCOCC3)c2O)cc1
IC50 (Plasmodium falciparum [19]): 2.28 µM

COC(=O)[C@H](Cc1ccc(O)c(-c2ccc(Br)cc2)c1)NC(=O)C(=O)c1c[nH]c2ccccc12
Activity (Plasmodium falciparum [12]): 60% | EC50 (Plasmodium falciparum [13]): 3.7 µM

Oc1ccccc1/N=C/c1cccc(CN2CCOCC2)c1O
IC50 (Plasmodium falciparum [19]): 2.28 µM

CCN(Cc1cc(C2(C)OOC(c3ccncc3)OO2)ccc1O)c1ccccc1 (centres undefined)
IC50 (Plasmodium falciparum [11]): 5.3 µg/mL (≈ 13 µM)

COC(=O)[C@H](Cc1ccc(O)c(-c2ccc3ccccc3c2)c1)NC(=O)C(=O)c1c[nH]c2ccccc12
Activity (Plasmodium falciparum [12]): 60%

COC(=O)[C@H](Cc1ccc(O)c(-c2ccc(C(F)(F)F)cc2)c1)NC(=O)C(=O)c1c[nH]c2ccccc12
Activity (Plasmodium falciparum [12]): 60%

CC(=O)Nc1cc(-c2ccc(F)cc2)cc2cc(-c3ccc(F)cc3)[nH]c12
IC50 (Plasmodium falciparum [10]): 1.43 µM

N=C(N)c1ccc(-c2cn(-c3ccc(C(=N)N)cc3)nn2)cc1
IC50 (Plasmodium falciparum [9]): 0.087 µM

Cc1ccc(-n2cc(C(=O)O)c(-c3ccccc3)n2)cc1
Activity (Plasmodium berghei): 95%

CC1(C)C2CC=C(CC(=O)Nc3ccnc4cc(Cl)ccc34)[C@@H]1C2
EC50 (Plasmodium falciparum [3]): 17.1 µM | EC50 (Plasmodium falciparum [4]): 7.84 µM | EC50 (Plasmodium falciparum [5]): 21.4 µM | selectivity ratio [17]: 1.8 | selectivity ratio [18]: 0.7 | CC50 at 72 h [6]: 14.3 µM | selectivity ratio [7]: 0.8

N=C(NC(=O)OCc1ccccc1)NC(=O)c1ccc(C(=O)OCc2ccccc2)o1
Ki (Falcipain 2): 2.69 µM

COC(=O)[C@H](Cc1ccc(O)c(-c2ccc(C(C)=O)cc2)c1)NC(=O)C(=O)c1c[nH]c2ccccc12
Activity (Plasmodium falciparum [12]): 60%

CC(=O)Nc1cc(/C=C/c2ccc(F)cc2)cc2cc(-c3ccc(F)cc3)[nH]c12
IC50 (Plasmodium falciparum [10]): 2.14 µM

COC(=O)[C@H](Cc1ccc(O)c(-c2cccc(O)c2)c1)NC(=O)C(=O)c1c[nH]c2ccccc12
Activity (Plasmodium falciparum [12]): 60%

CC1(C)C2CC=C(CC(=O)Nc3ccnc4ccccc34)[C@@H]1C2
EC50 (Plasmodium falciparum [3]): 26.4 µM | EC50 (Plasmodium falciparum [4]): 13.9 µM | EC50 (Plasmodium falciparum [5]): 23.4 µM | selectivity ratio [17]: 0.3 | selectivity ratio [18]: 0.2 | CC50 at 72 h [6]: 3.98 µM | selectivity ratio [7]: 0.2

Cc1ccc(C2=C/C(=C/c3cc4cc(C)ccc4nc3Cl)C(=O)O2)c(C)c1
MIC (Plasmodium falciparum [2]): 10 µg/mL (≈ 26.6 µM)

Oc1c(/C=N/c2ccc(Oc3ccc(/N=C/c4cccc(CN5CCOCC5)c4O)cc3)cc2)cccc1CN1CCOCC1
IC50 (Plasmodium falciparum [19]): 2.28 µM

Nc1cc(Cl)c(S(N)(=O)=O)cc1-c1nnc(S)n1-c1ccccc1Cl
IC50 (Plasmodium falciparum [8]): 0.025 µg/mL (≈ 0.0601 µM)

CCN(Cc1cc(C2(C)OOC(c3ccccc3)OO2)ccc1O)c1ccccc1 (centres undefined)
IC50 (Plasmodium falciparum [11]): 5.3 µg/mL (≈ 13 µM)

CC(=O)Nc1cc(-c2ccc(F)cc2)cc2c(C(=O)C(F)(F)F)c(-c3ccc(F)cc3)[nH]c12
IC50 (Plasmodium falciparum [10]): 2.52 µM

COc1ccc(/C=N/NC(=O)c2ccncc2)cc1O
inhibition (INH) (Plasmodium falciparum [1]): 91%

COC(=O)[C@H](Cc1ccc(O)c(-c2ccc(Cl)cc2)c1)NC(=O)C(=O)c1c[nH]c2ccccc12
Activity (Plasmodium falciparum [12]): 60%

Oc1c(/C=N/c2ccccc2/N=C/c2cccc(CN3CCOCC3)c2O)cccc1CN1CCNCC1
IC50 (Plasmodium falciparum [19]): 2.28 µM

N=C(N)c1ccc(-c2cn(-c3cccc(C(=N)N)c3)nn2)cc1
IC50 (Plasmodium falciparum [9]): 0.276 µM

COC(=O)[C@H](Cc1ccc(O)c(-c2ccc(C(C)(C)C)cc2)c1)NC(=O)C(=O)c1c[nH]c2ccccc12
Activity (Plasmodium falciparum [12]): 60%

C/C1=C\[C@H](C)CCC(=O)/C(C)=C/[C@H](C)C[C@@H](C)CC[C@@H]([C@@H](C)C(=O)O)OC(=O)[C@@H](C)C1
IC50 (Plasmodium falciparum [20]): 9.81 µM

CCN(Cc1cc(C2(C)OOC(c3ccccn3)OO2)ccc1O)c1ccccc1 (centres undefined)
IC50 (Plasmodium falciparum [11]): 5.3 µg/mL (≈ 13 µM)

Cc1ccc(-n2cc(C=O)c(-c3ccccc3)n2)cc1
Activity (Plasmodium berghei): 85%

O=Cc1cn(-c2ccc(Cl)cc2)nc1-c1ccccc1
Activity (Plasmodium berghei): 83%

C/C1=C\[C@H](C)C(=O)C[C@@H](O)/C(C)=C/[C@H](C)C[C@@H](C)CC[C@@H]([C@@H](C)C(=O)O)OC(=O)[C@@H](C)C1
IC50 (Plasmodium falciparum [20]): 0.123 µM

CCN(CC)c1ccc(/N=C/c2cccc(CN3CCOCC3)c2O)cc1
IC50 (Plasmodium falciparum [19]): 2.28 µM

COC(=O)[C@H](Cc1ccc(O)c(-c2ccccc2)c1)NC(=O)C(=O)c1c[nH]c2ccccc12
Activity (Plasmodium falciparum [12]): 60%

O=C(Nc1ccc([C@@H]2[C@H](Oc3ccc(Cl)cc3Cl)C(=O)N2c2ccc(Cl)cc2)cc1)N1CCOCC1
IC50 (Plasmodium falciparum [14]): 26 µM

O=C(N/N=C/c1ccc(O)cc1)c1ccncc1
inhibition (INH) (Plasmodium falciparum [1]): 90%

COC(=O)[C@H](Cc1ccc(O)c(I)c1)NC(=O)C(=O)c1c[nH]c2ccccc12
Activity (Plasmodium falciparum [12]): 20%
